This assay relates to human Peripheral Blood Mononuclear Cell (PMBC). The experiment in a line: PBMC Assay, cytokine stimulation (IFNα). It counts as cell-based. To be noted: concentration at which the compound stimulated maximum IFN α production, 24 hours, read-out: IFN ECmax values. How it is done:
Assays were conducted to determine cytokine stimulation at 24 hours from human Peripheral Blood Mononuclear Cell (PMBC) using the compounds of the present invention. The assays were run in duplicate, with 8-point, half-log dilution curves. The compounds of the present invention were diluted from […] DMSO solution. Cell supernatants are assayed directly for IFNα and 1:10 dilution for TNFα. The assays were performed in a similar fashion as described in Bioorg. Med. Chem. Lett. 16, 4559, (2006). Specifically, cryo-preserved PBMCs were thawed and seeded 96 well plates with 750,000 cells/well in 190 μL/well cell media. The PBMCs were then incubated for 1 hour at 37° C. at 5% CO2. Then, the compounds of the present invention were added in 10 μL cell media at 8 point, half-log dilution titration. The plates were incubated at 37° C. and 5% CO2 for 24 hours and then spinned at 1200 rpm for 10 min, which was followed by collecting supernatant and storing the same at −80° C. Cytokine secretion was assayed with Luminex and Upstate multi-plex kits, using a Luminex analysis instrument. IFN ECmax value for a compound was the concentration at which the compound stimulated maximum IFN α production as determined using the assay method above.

Drawing on patent US9611268B2, “Modulators of toll-like receptor 7” (Gilead Sciences, Inc., priority 2007, dated 2017), this text covers EC (max) for 16 molecules.

Some results are limits rather than exact numbers.

Consider `Nc1nc(OCCC2CC2)nc2c1nc(O)n2Cc1cccc(CN2CCCC2)c1` [Example AU], for which the EC (max) was below 0.005 µM.
On to `Nc1nc(OCCC(F)(F)F)nc2c1nc(O)n2Cc1cccc(CN2CCCC2)c1` [Example BH], for which the EC (max) was below 0.005 µM.
In the case of `COCCOc1nc(N)c2nc(O)n(Cc3cccc(CN4CCCC4)c3)c2n1` [Example A, 6-Amino-2-(2-methoxy-ethoxy)-9-(3-pyrrolidin-1-ylmethyl-benzyl)-9H-purin-8-ol] it was below 0.005 µM; in that of `COCCOc1nc(N)c2nc(O)n(Cc3cccc(CNCC4CCCCC4)c3)c2n1` [Example AZ], below 0.005 µM; in that of `Nc1nc(OC2CCCC2)nc2c1nc(O)n2Cc1cccc(CN2CCCC2)c1` [Example BM], below 0.005 µM.
For the molecule `COCCOc1nc(N)c2nc(O)n(Cc3cccc(CN4CC(C)CC(C)C4)c3)c2n1` (stereo not shown) [Example F, 6-Amino-9-[3-(3,5-dimethyl-piperidin-1-ylmethyl)-benzyl]-2-(2-methoxy-ethoxy)-9H-purin-8-ol], the EC (max) is below 0.005 µM.
For `COCCOc1nc(N)c2nc(OC(=O)OC(C)C)n(Cc3cccc(CN4CCCC4)c3)c2n1` [Example R, 9-(3-(pyrrolidin-1-ylmethyl)benzyl)-6-amino-2-(2-methoxyethoxy)-9H-purin-8-yl isopropyl carbonate], the EC (max) is below 0.005 µM.
On to `Nc1nc(OCC2CCC2)nc2c1nc(O)n2Cc1cccc(CN2CCCC2)c1` [Example AV], for which the EC (max) was below 0.005 µM.
As to `COCCOc1nc(N)c2nc(O)n(Cc3cc(CN4CCCC4)cc(C(F)(F)F)c3)c2n1` [Example AQ], the EC (max) is below 0.005 µM.
Take `Nc1nc(OCC2CC2)nc2c1nc(O)n2Cc1cccc(CN2CCCC2)c1` [Example AW]: the EC (max) is below 0.005 µM.
For the molecule `CCCCOc1nc(N)c2nc(O)n(Cc3cccc(CN4CCC4)c3)c2n1` [Example BE], the EC (max) is below 0.005 µM.
As to `COCCOc1nc(N)c2nc(O)n(Cc3cccc(CNCC4CC4)c3)c2n1` [Example D, 6-Amino-9-{3-[(cyclopropylmethyl-amino)-methyl]-benzyl}-2-(2-methoxy-ethoxy)-9H-purin-8-ol], the EC (max) is below 0.005 µM.
As for `COCCOc1nc(N)c2nc(O)n(Cc3cc(CN4CCCCC4)cc(C(F)(F)F)c3)c2n1` [Example AS], the EC (max) is below 0.005 µM.
Next, `COCCOc1nc(N)c2nc(O)n(Cc3cccc(CN4CCCCC4)c3)c2n1` [Example J, 6-Amino-2-(2-methoxy-ethoxy)-9-(3-piperidin-1-ylmethyl-benzyl)-9H-purin-8-ol]: below 0.005 µM; `COCCOc1nc(N)c2nc(O)n(Cc3cccc(CN4CCN(C)CC4)c3)c2n1` [Example C, 6-Amino-2-(2-methoxy-ethoxy)-9-[3-(4-methyl-piperazin-1-ylmethyl)-benzyl]-9H-purin-8-ol]: below 0.005 µM; `COCCOc1nc(N)c2nc(O)n(Cc3cccc(CN4CCC4)c3)c2n1` [Example N, 9-(3-(azetidin-1-ylmethyl)benzyl)-6-amino-2-(2-methoxyethoxy)-9H-purin-8-ol]: below 0.005 µM.
